Assay results from PubChem BioAssay AID2060620 (Molecular Pharmacology Branch, DTP, NCI, 2025).

System: 328373-195-R-J1-PDC complex spheroids, viability % test/control
Assay: Anticancer human tumor 328373-195-R-J1-PDC patient-derived head and neck squamous carcinoma cell line growth inhibition [CLK]
Conditions: for IC50: curve of first compound; for viability, T/C: stronger effect = lower value; active = viability on the fitted dose curve at most 10% of control; inactive = the rest
In short: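 Patient-derived tumor cells grown as complex spheroids with HUVEC endothelial cells and mesenchymal stem cells, treated with drug combinations. Concentrations descend in half-log steps from near clinical Cmax, or from 10 microM if Cmax unknown.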
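Also: spheroids exposed to the agents for 7 days.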

COc1ccc([C@@H](O)c2cc(-c3ncnc4cc(N5CCOCC5)ccc34)c(F)cc2Cl)nn1 + CNC(=O)c1ccc(Nc2nc(OC3CCCC3)c3c(-c4ccc5nc(C)oc5c4)c[nH]c3n2)c(OC)c1
3760 nM: IC50 (second compound 0.0316 µM)
active: viability, T/C (second compound 0.316 µM, first compound 0.0316 µM) 8.21% | viability, T/C (second compound 0.316 µM, first compound 0.1 µM) 8.88% | viability, T/C (second compound 0.316 µM, first compound 0.316 µM) 8.95% | viability, T/C (second compound 0.316 µM, first compound 1 µM) 7.72% | viability, T/C (second compound 0.316 µM, first compound 3.16 µM) 10.2% | viability, T/C (second compound 0.316 µM, first compound 10 µM) 12.2%
inactive: viability, T/C (second compound 0.0316 µM, first compound 0.0316 µM) 51.2% | viability, T/C (second compound 0.0316 µM, first compound 0.1 µM) 56.5% | viability, T/C (second compound 0.0316 µM, first compound 0.316 µM) 43.4% | viability, T/C (second compound 0.0316 µM, first compound 1 µM) 58.7% | viability, T/C (second compound 0.0316 µM, first compound 3.16 µM) 55.4% | viability, T/C (second compound 0.0316 µM, first compound 10 µM) 33.3% | viability, T/C (second compound 0.1 µM, first compound 0.0316 µM) 10.5% | viability, T/C (second compound 0.1 µM, first compound 0.1 µM) 8.48% | viability, T/C (second compound 0.1 µM, first compound 0.316 µM) 12.4% | viability, T/C (second compound 0.1 µM, first compound 1 µM) 10% | viability, T/C (second compound 0.1 µM, first compound 3.16 µM) 9.78% | viability, T/C (second compound 0.1 µM, first compound 10 µM) 12.6% | viability, T/C (second compound 1 µM, first compound 0.0316 µM) 10.3% | viability, T/C (second compound 1 µM, first compound 0.1 µM) 8.67% | viability, T/C (second compound 1 µM, first compound 0.316 µM) 10.8% | viability, T/C (second compound 1 µM, first compound 1 µM) 9.89% | viability, T/C (second compound 1 µM, first compound 3.16 µM) 9.31% | viability, T/C (second compound 1 µM, first compound 10 µM) 12.8% | viability, T/C (second compound 3.16 µM, first compound 0.0316 µM) 9.71% | viability, T/C (second compound 3.16 µM, first compound 0.1 µM) 9.31% | viability, T/C (second compound 3.16 µM, first compound 0.316 µM) 9.23% | viability, T/C (second compound 3.16 µM, first compound 1 µM) 9.82% | viability, T/C (second compound 3.16 µM, first compound 3.16 µM) 10.5% | viability, T/C (second compound 3.16 µM, first compound 10 µM) 13.2% | viability, T/C (second compound 10 µM, first compound 0.0316 µM) 10.6% | viability, T/C (second compound 10 µM, first compound 0.1 µM) 10.8% | viability, T/C (second compound 10 µM, first compound 0.316 µM) 8.9% | viability, T/C (second compound 10 µM, first compound 1 µM) 13.1% | viability, T/C (second compound 10 µM, first compound 3.16 µM) 12.2% | viability, T/C (second compound 10 µM, first compound 10 µM) 12.5%
< 31.6 nM: IC50 (second compound 0.1 µM) | IC50 (second compound 0.316 µM) | IC50 (second compound 1 µM) | IC50 (second compound 3.16 µM) | IC50 (second compound 10 µM)
